Here are results for 7 compounds from article PMC9504419, “Multipotent Cholinesterase Inhibitors for the Treatment of Alzheimer’s Disease: Synthesis, Biological Analysis and Molecular Docking Study of Benzimidazole-Based Thiazole Derivatives” (Molecules, 2022).

One experiment has as its system brain AChE. The note with it: similar degree of brain AChE inhibition; cited from earlier work.
The target of another experiment is AChE (Homo sapiens, UniProt P22303). Put plainly: biochemical. It is filed as biochemical. The settings on record: for Selectivity Index: AChE and BuChE IC50 values; for IC50: read-out: IC50AChE. Here is the method: (§1) The inhibition of AChE and BChE was determined using a method described earlier. Briefly, the stock solutions (1 mg/mL) of test analogues were prepared using DMSO. The working solutions (1–100 μg/mL) were prepared using serial dilutions (a serial dilution means a series of diluted solutions, e.g., 0.1 mg/mL, 0.2 mg/mL and so on; the solutions contained 5% DMSO and 95% water). The various concentrations of test compounds (10 μL) were pre-incubated with sodium phosphate buffer (0.1 M; pH 8.0; 150 μL) and AChE (0.1 U/mL; 20 μL) for 15 min at 25 °C. The reaction was initiated via the addition of DTNB (1 mM; 10 μL) and […] (1 mM; 10 μL). The mixture of reaction was mixed using a cyclomixer and incubated for 10 min at 25 °C. The absorbance was measured using a microplate reader at a 410 nm wavelength against the blank reading containing 10μL DMSO instead of the test compound (the solution contained 5% DMSO and 95% water).
AChE, sequence (P22303 32-614): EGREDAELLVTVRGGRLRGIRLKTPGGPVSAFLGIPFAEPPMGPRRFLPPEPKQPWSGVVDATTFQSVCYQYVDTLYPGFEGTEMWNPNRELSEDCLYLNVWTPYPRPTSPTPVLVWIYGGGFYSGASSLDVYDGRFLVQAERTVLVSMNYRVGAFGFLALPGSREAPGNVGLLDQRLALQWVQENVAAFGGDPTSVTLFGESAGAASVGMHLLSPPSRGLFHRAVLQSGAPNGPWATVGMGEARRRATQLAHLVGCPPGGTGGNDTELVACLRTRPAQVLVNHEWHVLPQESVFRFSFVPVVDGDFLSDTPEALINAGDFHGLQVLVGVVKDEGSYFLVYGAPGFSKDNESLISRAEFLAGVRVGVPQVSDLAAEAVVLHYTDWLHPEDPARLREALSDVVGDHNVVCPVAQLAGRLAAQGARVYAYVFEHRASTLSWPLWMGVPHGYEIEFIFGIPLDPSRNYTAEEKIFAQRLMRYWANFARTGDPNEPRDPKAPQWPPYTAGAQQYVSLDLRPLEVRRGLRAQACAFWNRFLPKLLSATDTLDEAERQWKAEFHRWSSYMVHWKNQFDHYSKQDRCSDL

(§2) % Inhibition = (Absorbance of control—Absorbance of compound)/Absorbance of control × 100

The target in the next experiment is BuChE (Homo sapiens, UniProt P06276). The experiment in a line: biochemical. It is filed as biochemical. The settings on record: read-out: IC50BuChE. The method, then: as §1, §2
BuChE, sequence (P06276 29-602): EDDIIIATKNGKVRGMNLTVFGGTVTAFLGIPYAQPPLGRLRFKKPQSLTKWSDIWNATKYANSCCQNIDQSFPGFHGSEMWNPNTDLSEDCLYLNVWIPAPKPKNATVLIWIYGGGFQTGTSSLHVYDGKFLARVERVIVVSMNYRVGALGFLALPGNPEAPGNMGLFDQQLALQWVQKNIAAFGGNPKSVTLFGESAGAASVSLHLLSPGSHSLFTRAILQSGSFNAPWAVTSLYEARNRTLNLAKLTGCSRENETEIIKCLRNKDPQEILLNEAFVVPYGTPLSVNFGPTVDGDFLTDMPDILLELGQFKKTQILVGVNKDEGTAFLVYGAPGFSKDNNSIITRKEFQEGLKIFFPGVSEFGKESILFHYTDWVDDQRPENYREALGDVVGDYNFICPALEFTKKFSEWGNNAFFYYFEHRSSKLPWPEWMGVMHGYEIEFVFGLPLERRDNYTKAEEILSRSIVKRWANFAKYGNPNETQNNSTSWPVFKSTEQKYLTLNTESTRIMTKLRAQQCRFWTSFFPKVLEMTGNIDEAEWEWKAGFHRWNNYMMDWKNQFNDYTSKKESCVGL

In the case of `COc1ccc2c3c1O[C@H]1C[C@@H](O)C=C[C@@]31CCN(C)C2` [Galantamine], in the experiment on brain AChE, the “doses needed, times greater than those of Donepezil” value was 3–15 times.
Turning to `Cc1ccc(-c2csc(N/N=C(/CSc3nc4ccccc4[nH]3)c3ccc(Cl)c(Cl)c3)n2)cc1` [compound 19, (E)-2-(2-(2-((1H-benzo[d]imidazol-2-yl)thio)-1-(3,4-dichlorophenyl)ethylidene) hydrazinyl)-4-(p-tolyl)thiazole], at AChE, the “Selectivity Index” value turned out to be 0.92 and the IC50 is 1400 ± 100 nM. Also, at BuChE, the IC50 was 1300 ± 100 nM.
In the case of `COc1cccc(-c2csc(N/N=C(/CSc3nc4ccccc4[nH]3)c3ccc(Cl)c(Cl)c3)n2)c1` [compound 20, (E)-2-(2-(2-((1H-benzo[d]imidazol-2-yl)thio)-1-(3,4-dichlorophenyl)ethylidene) hydrazinyl)-4-(3-methoxyphenyl)thiazole], at AChE, the “Selectivity Index” value is 1.58 and the IC50 came out at 1200 ± 100 nM. Further, at BuChE, the IC50 is 1900 ± 100 nM.
The matching figures for `Clc1ccc(/C(CSc2nc3ccccc3[nH]2)=N\Nc2nc(-c3ccc(Cl)c(Cl)c3)cs2)cc1Cl` [compound 21, (E)-2-(2-(2-((1H-benzo[d]imidazol-2-yl)thio)-1-(3,4-dichlorophenyl)ethylidene) hydrazinyl)-4-(3,4-dichlorophenyl)thiazole]: 2.0, 100 ± 50 nM and 200 ± 50 nM.
As to `COc1ccccc1-c1csc(N/N=C(/CSc2nc3ccccc3[nH]2)c2ccc(Cl)c(Cl)c2)n1` [compound 22, (E)-2-(2-(2-((1H-benzo[d]imidazol-2-yl)thio)-1-(3,4-dichlorophenyl)ethylidene) hydrazinyl)-4-(2-methoxyphenyl)thiazole], the “Selectivity Index” value at AChE was found to be 1.75. Further, the IC50 was 400 ± 200 nM at AChE and 700 ± 100 nM at BuChE.
For the compound `Clc1ccc(/C(CSc2nc3ccccc3[nH]2)=N\Nc2nc(-c3ccc(Br)cc3)cs2)cc1Cl` [compound 23, (E)-2-(2-(2-((1H-benzo[d]imidazol-2-yl)thio)-1-(3,4-dichlorophenyl)ethylidene) hydrazinyl)-4-(4-bromophenyl)thiazole], at AChE, the “Selectivity Index” value worked out at 1.43 and the IC50 is 4700 ± 100 nM. For the same compound, on BuChE, the IC50 was 6700 ± 100 nM.
Take `Cc1ccc(/C(CSc2nc3ccccc3[nH]2)=N\Nc2nc(-c3ccc(C)cc3)cs2)cc1` [compound 24, (E)-2-(2-(2-((1H-benzo[d]imidazol-2-yl)thio)-1-(p-tolyl)ethylidene)hydrazinyl)-4-(p-tolyl)thiazole]: on AChE, the “Selectivity Index” value was found to be 1.28 and the IC50 came to 11100 ± 300 nM. On BuChE, the IC50 turned out to be 14200 ± 100 nM.
